Results published in patent US11078222B2, “Hydroxybenzoic acid derivatives, methods and uses thereof” (UNiVERSIDADE DO PORTO, priority 2016, dated 2021).
pIC50: −log10 of the molar value. Blank lines part the entries; values can stand above or below the compound they belong to.

Experiments:
[1] = DPPH radical scavenging activity (total antioxidant capacity); format: biochemical; settings: ethanol, 515 nm, 45 min
[2] = ABTS radical cation scavenging activity; format: biochemical; settings: ethanol, 15 min
[3] = GO radical scavenging activity; format: biochemical; settings: ethanol, 428 nm, 30 min
[4] = Redox potential by differential pulse and cyclic voltammetry, glassy carbon electrode; format: physicochemical; settings: physiological pH 7.4
Experimental: In an embodiment, the oxidative behaviour of the parent antioxidants (protocatechuic and gallic acids) and AntiOxBENs was evaluated at physiological pH 7.4, by differential pulse and cyclic voltammetry, using a glassy carbon working electrode. […] For pyrogallol derivatives (gallic acid, AntiOxBEN2, AntiOxBEN3), a significant decrease in redox potentials was observed (Ep=0.163-0.168 V) (Table 1).
In an embodiment, the electrochemical analytical data was obtained using a computer controlled potentiostat Autolab PGSTAT302N (Metrohm Autolab, Utrecht, Netherlands). Generally, cyclic voltammetry (CV) data was acquired at a scan rate of 50 mVs^−1. Differential pulse voltammetry (DPV) results were acquired at a step potential of 4 mV, pulse amplitude of 50 mV and scan rate of 8 mVs^−1. The electrochemical signals were monitored by the General Purpose Electrochemical System (GPES) version 4.9, software package. All electrochemical experiments were performed at room temperature in an electrochemical cell that was placed in a Faraday cage in order to minimize the contribution of background noise to the analytical signal.
In an embodiment, the process of evaluation of AntiOxBENs redox properties was conducted as follows: stock solutions of each compound (10 mM) were prepared by dissolving the appropriate amount in ethanol. The voltammetric working solutions were prepared in the electrochemical cell, at a final concentration of 0.1 mM. The […] supporting electrolyte was prepared by diluting 6.2 mL of 0.2 M dipotassium hydrogen phosphate and 43.8 mL of 0.2 M potassium dihydrogen phosphate to 100 mL. Voltammetric data was acquired in a three-electrode system consisting of a glassy carbon electrode (GCE, d=2 mm) as working electrode, a counter electrode of platinum wire and a saturated Ag/AgCl reference electrode. In an embodiment, the evaluation of AntiOxBENs lipophilic properties was performed as follows: the electrochemical cell was a four-electrode system with arrays of micro liquid-liquid interfaces (μITIES) containing two Ag/AgCl reference electrodes and two counter electrodes of Pt, one in each phase. The microporous membrane was sealed with a fluorosilicone sealant (Dow Corning 730) onto a glass cylinder which was filled with 4.0 mL of the aqueous phase, where the aliquots of AntiOxBENs solutions were added. The membrane was then immersed into the organic phase contained in the cell. The organic phase reference solution (a 2 mM BTPPACI+2 mM NaCl aqueous solution) was mechanically stabilized The aqueous supporting electrolyte solution was a Tris-HCl buffer 10 mM pH 7.0.

[5] = Iron (II) chelation, ferrozine assay; format: biochemical; settings: compound 100 μM
Experimental: In an embodiment, the iron (II) chelation capacity of the novel AntiOxBENs was evaluated by the ferrozine assay using EDTA (ethylenediaminetetracetic acid) as reference. The iron chelating properties of protocatechuic and gallic acids, and MitoQ, a mitochondriotropic antioxidant, were also evaluated (FIG. 2).
In an embodiment, AntiOxBENs iron chelating properties were evaluated by the spectrophotometric ferrozine method performed in a multiplate reader (Powerwave XS Microplate Reader) of Bio-Tech instruments.
In an embodiment, the AntiOxBENs iron chelating properties were evaluated as follows: in each well, a solution of the test compound (100 μM) and ammonium iron (II) sulphate in ammonium acetate (20 μM) were added, incubated for 10 min and the absorbance was read at 562 nm. Then, a freshly prepared solution of ferrozine (5 mM) was added to each well (96 μM final concentration). After a new incubation at 37° C. for 10 min period, the absorbance of [Fe(ferrozine)3]^2+ complex was measured at 562 nm. Blank wells were run using DMSO instead of the test compounds. EDTA was used as a reference. All compounds were tested at a final concentration of 100 μM. The absorbance of the first reading was subtracted to the final values to abolish any absorbance due to the test compounds.

[6] = system: rat liver mitochondria (RLM) membranes; assay: RLM lipid peroxidation, TBARS assay (FeSO4/H2O2/ascorbate); settings: 5 μM; for prevention of TBARS formation / mitochondria lipid peroxidation: FeSO4/H2O2/ascorbate
[7] = system: rat liver mitochondria (RLM); assay: Mitochondrial respiration of isolated RLM (Clark-type oxygen electrode): RCR, ADP/O; format: biochemical
Experimental: (§1) In an embodiment, and as an example, the toxicity effects of some AntiOxBENs and MitoQ on the mitochondrial bioenergetics, namely on RLM Δψ and respiration parameters, were measured. The Δψ represents the main component of the electrochemical gradient generated by mitochondrial respiration and accounts for more than 90% of the total available energy. For mitochondrial respiration assays, glutamate/malate (for complex I) and succinate (for complex II) were used as substrates. In addition, the mitochondrial oxidative phosphorylation coupling index, known as respiratory control ratio (RCR, state 3/state 4 respiration) and ADP/O index (the coupling between ATP synthesis and oxygen consumption) were also calculated. AntiOxBENs and MitoQ were tested at antioxidant-relevant concentrations, with 10 μM being the highest concentration.
In an embodiment, the evaluation of AntiOxBENs effect on mitochondrial respiration was performed as follows: the respiration of isolated RLM was evaluated polarographically with a Clark-type oxygen electrode, connected to a suitable recorder in a 1 mL thermostated water-jacketed chamber with magnetic stirring, at 37° C. […] Increasing concentrations of AntiOxBENs (2.5-10 μM) were added to the reaction medium containing respiratory substrates glutamate/malate (10 mM and 5 mM respectively) or succinate (5 mM) and RLM (1 mg) and allowed to incubate for a 5 min period prior to the assay. State 2 was considered as the respiration during the 5 min incubation time with AntiOxBENs. […] State 4 was determined after ADP phosphorylation finished. Subsequent addition of oligomycin (2 μg/ml) inhibited ATPsynthase and originated the oligomycin-inhibition respiration state. Finally, 1 μM FCCP was added to induce uncoupled respiration. […] Data are means are means±SEM of seven independent experiments.

[8] = system: rat liver mitochondria (RLM); assay: Mitochondrial transmembrane electric potential (safranine fluorescence); format: biochemical
Experimental: as §1
In an embodiment, the evaluation of AntiOxBENs effect on mitochondrial transmembrane electric potential (Δψ) was performed as follows: the mitochondrial transmembrane electric potential (Δψ) was estimated through the evaluation of fluorescence changes of safranine (5 μM) and was recorded on a spectrofluorometer operating at excitation and emission wavelengths of 495 and 586 nm, with a slit width of 5 nm. Increasing concentrations of AntiOxBENs (2.5-10 μM) were added to the reaction medium (200 mM sucrose, 1 mM KH2PO^4, 10 mM Tris (pH 7.4) and 10 μM EGTA) containing respiratory substrates glutamate/malate (5 mM and 2.5 mM respectively) or succinate (5 mM) and RLM (0.5 mg in 2 mL final volume) and allowed to incubate for a 5 min period prior to initiate the assay, at 25° C. In this assay, safranine (5 μM) and ADP (25 nmol) were used to initiate the assay and to induce depolarization, respectively. Then, 1 μM FCCP was added at the end of all experiments to depolarize mitochondria. Δψ was calculated using a calibration curve obtained when RLM were incubated in a K^+-free reaction medium containing 200 mM sucrose, 1 mM NaH2PO4, 10 mM Tris (pH 7.4) and 10 μM EGTA, supplemented with 0.4 μg valinomicin. […] “Repolarization” corresponded to the recovery of membrane potential after the complete phosphorylation of ADP added. Lag phase reflected the time required to phosphorylate the added ADP. Isolated RLM developed a Δψ≈226 mV and Δψ≈202 mV (negative inside) when glutamate/malate or succinate were used, respectively. Data are means±SEM of five independent experiments.

Compound: O=C(O)c1ccc(O)c(O)c1 [Protocatechuic acid]
pIC50 [1]: 4.56
pIC50 [2]: 4.52
pIC50 [3]: 5.24
Ep (redox potential) [4]: 0.257 V
ability to chelate ferrous iron [5]: able to chelate iron efficiently
prevention of TBARS formation / mitochondria lipid peroxidation [6]: not effective

Compound: O=C(O)CN(CCN(CC(=O)O)CC(=O)O)CC(=O)O [EDTA, ethylenediaminetetracetic acid]
ability to chelate ferrous iron [5]: chelate all the iron available in solution

Compound: COC1=C(OC)C(=O)C(CCCCCCCCCC[P+](c2ccccc2)(c2ccccc2)c2ccccc2)=C(C)C1=O.CS(=O)(=O)[O-] [MitoQ, [10-(4,5-dimethoxy-2-methyl-3,6-dioxo-1,4-cyclohexadien-1-yl)decyl]triphenylphosphonium methanesulfonate, reference compound]
concentration causing toxicity on the mitochondrial bioenergetic apparatus of RLM ([7]; RLM): 2500 nM
ADP/O ([7]; RLM, Glutamate/Malate, 2.5 μM): 2.2 ± 0.1
RCR ([7]; RLM, Glutamate/Malate, 2.5 μM): 4.2 ± 0.6
ADP/O ([7]; RLM, Glutamate/Malate, 5 μM): 1.9 ± 0.1
RCR ([7]; RLM, Glutamate/Malate, 5 μM): 2.7 ± 0.3
ADP/O ([7]; RLM, Glutamate/Malate, 10 μM): 2.0 ± 0.2
RCR ([7]; RLM, Glutamate/Malate, 10 μM): 1.3 ± 0.1
ADP/O ([7]; RLM, Succinate, 2.5 μM): 1.3 ± 0.1
RCR ([7]; RLM, Succinate, 2.5 μM): 2.6 ± 0.2
ADP/O ([7]; RLM, Succinate, 5 μM): 1.3 ± 0.1
RCR ([7]; RLM, Succinate, 5 μM): 2.4 ± 0.2
effect on RCR and ADP/O parameters ([7]; RLM, all tested concentrations (2.5-10 μM)): significant decrease of RCR and ADP/O parameters
uncoupling of RLM ([7]; succinate, highest concentration tested (10 μM)): completely uncoupled
Δψ after ADP addition ([8]; 10 μM): Δψ collapse after ADP addition
ADP-induced depolarization (ΔΨ in - mV) ([8]; Glutamate/Malate, 2.5 μM): 173.0 ± 9.4 - mV
Lag Phase ([8]; Glutamate/Malate, 2.5 μM): 86.5 ± 5.6 s
Maximum potential (ΔΨ in - mV) ([8]; Glutamate/Malate, 2.5 μM): 195.7 ± 10.8 - mV
Repolarization Potential (ΔΨ in - mV) ([8]; Glutamate/Malate, 2.5 μM): 191.1 ± 11.7 - mV
ADP-induced depolarization (ΔΨ in - mV) ([8]; Glutamate/Malate, 5 μM): 173.5 ± 8.9 - mV
Lag Phase ([8]; Glutamate/Malate, 5 μM): 84.5 ± 7.1 s
Maximum potential (ΔΨ in - mV) ([8]; Glutamate/Malate, 5 μM): 188.3 ± 10.6 - mV
Repolarization Potential (ΔΨ in - mV) ([8]; Glutamate/Malate, 5 μM): 185.0 ± 9.4 - mV
Maximum potential (ΔΨ in - mV) ([8]; Glutamate/Malate, 10 μM): 113.8 ± 10.2 - mV
ADP-induced depolarization (ΔΨ in - mV) ([8]; Succinate, 2.5 μM): 162.1 ± 6.0 - mV
Lag Phase ([8]; Succinate, 2.5 μM): 104.8 ± 9.9 s
Maximum potential (ΔΨ in - mV) ([8]; Succinate, 2.5 μM): 181.6 ± 8.3 - mV
Repolarization Potential (ΔΨ in - mV) ([8]; Succinate, 2.5 μM): 182.7 ± 9.2 - mV
ADP-induced depolarization (ΔΨ in - mV) ([8]; Succinate, 5 μM): 157.1 ± 6.4 - mV
Lag Phase ([8]; Succinate, 5 μM): 92.6 ± 19.4 s
Maximum potential (ΔΨ in - mV) ([8]; Succinate, 5 μM): 170.2 ± 8.1 - mV
Repolarization Potential (ΔΨ in - mV) ([8]; Succinate, 5 μM): 170.7 ± 8.7 - mV
Maximum potential (ΔΨ in - mV) ([8]; Succinate, 10 μM): 108.9 ± 3.8 - mV
inhibition of lipid peroxidation in RLM ([6]; FIGS. 4 and 5 (TBARS and oxygen consumption)): effectively inhibited lipid peroxidation

Continued, in another order:

pIC50 [1]: 4.57
pIC50 [2]: 4.51
pIC50 [3]: 5.35
Ep (redox potential) [4]: 0.099 V
Compound: Cc1c(C)c2c(c(C)c1O)CCC(C)(C(=O)O)O2 (centres unmarked) [Trolox]

pIC50 [1]: 4.58
pIC50 [2]: 4.51
pIC50 [3]: 5.24
Compound: Vitamin E

pIC50 [1]: 5.00
pIC50 [2]: 5.11
pIC50 [3]: 5.60
Ep (redox potential) [4]: 0.163 V
Compound: O=C(O)c1cc(O)c(O)c(O)c1 [Gallic acid]
ability to chelate ferrous iron [5]: able to chelate iron efficiently
prevention of TBARS formation / mitochondria lipid peroxidation [6]: most effective
